Measurements as given in patent publication US20200277355A1 (GUILIN EIGHT PLUS ONE PHARMACEUTICAL CO., LTD., priority 2017, published 2020).
Where two headings read alike, the source gives them in different places. No end group written: not given here.

Assays:
TNFR2 = target: T1, TNFR2 (Homo sapiens, UniProt P20333); assay: MST binding of Hydrostatin-SN10 to TNFR2
T1 sequence (P20333 23-461): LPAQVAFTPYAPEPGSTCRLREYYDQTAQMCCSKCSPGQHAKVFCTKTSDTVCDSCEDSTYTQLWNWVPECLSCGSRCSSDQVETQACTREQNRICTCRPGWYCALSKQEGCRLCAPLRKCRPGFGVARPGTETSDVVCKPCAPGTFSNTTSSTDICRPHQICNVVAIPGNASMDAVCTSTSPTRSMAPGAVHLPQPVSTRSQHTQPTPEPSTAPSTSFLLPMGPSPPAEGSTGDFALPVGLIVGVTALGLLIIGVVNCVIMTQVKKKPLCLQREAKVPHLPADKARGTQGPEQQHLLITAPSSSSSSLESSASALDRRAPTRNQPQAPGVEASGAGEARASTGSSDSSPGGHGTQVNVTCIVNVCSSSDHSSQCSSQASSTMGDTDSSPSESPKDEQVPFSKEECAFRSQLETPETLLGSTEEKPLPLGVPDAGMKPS

TNF-α [1] = target: T2, TNF-α (Homo sapiens, UniProt P01375); assay: BIAcore (SPR) binding of Hydrostatin-SN10 to TNF-α
TNFR1 [2] = target: T3, TNFR1 (Homo sapiens, UniProt P19438); assay: biochemical
T3 sequence (P19438 30-455): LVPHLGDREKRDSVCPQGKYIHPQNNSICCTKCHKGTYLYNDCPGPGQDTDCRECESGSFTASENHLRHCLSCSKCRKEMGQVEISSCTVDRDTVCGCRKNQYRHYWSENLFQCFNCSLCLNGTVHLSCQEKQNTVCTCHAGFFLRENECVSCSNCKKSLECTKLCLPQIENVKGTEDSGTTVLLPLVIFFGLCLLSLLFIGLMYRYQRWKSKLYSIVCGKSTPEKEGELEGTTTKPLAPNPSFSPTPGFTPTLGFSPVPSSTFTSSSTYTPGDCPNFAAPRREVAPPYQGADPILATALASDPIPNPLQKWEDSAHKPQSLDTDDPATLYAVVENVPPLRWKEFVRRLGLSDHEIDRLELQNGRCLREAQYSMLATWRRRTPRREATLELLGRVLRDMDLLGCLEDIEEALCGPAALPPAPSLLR

[3] = test system: OXZ-induced acute colitis mouse; assay: Oxazolone-induced acute colitis mouse model; assay type: in vivo, Balb/c mice; settings: for body weight change: 400 ug/kg/d i.p. 3 days, FIG. 13; for colon length: 3rd day after enema, FIG. 15; for MPO activity in colon tissue: FIG. 17; for serum IFN-γ level / serum IL-1β level / serum IL-6 level / serum IL-10 (anti-inflammatory factor) / serum TNF-α level: FIG. 18; for pathological changes in colon tissue, HE staining: FIG. 19; for expression of TNF-α in colon tissue sections: FIG. 20
Experimental: Establishment of an oxazolone-induced mouse colitis animal model: Male Balb/c mice, 6-8 weeks old, were randomly divided into 8 groups, each containing 10 mice. On the first day, the back skin of the mouse was shaved (1.5 cm×1.5 cm), and the normal group was coated with 0.15 mL of acetone/olive oil solution (acetone/olive oil volume ratio of 4:1). The model group and the SN10 group were negatively controlled. The drug and the positive control group were skin-coated with 0.15 mL of 3% (w/v) oxazolone (dissolved in acetone/olive oil solution) for skin pre-sensitization. On the 8th day, the mice were anesthetized by intraperitoneal injection of 4% chloral hydrate. The 3.51 catheter was slowly and gently inserted into the colon of the mouse about 4 cm from the anus. The normal group was injected with 0.1 mL of 50% ethanol, and the other groups were injected with […]. 1% (w/v) oxazolone (dissolved in 50% ethanol), slowly pull out the catheter, keep the mouse vertical, head down position for 60 s, so that the drug solution is fully left in the intestinal lumen. After enema, the normal group and the model group were given intraperitoneal injection of 0.1 mL of normal saline. […] The injection dose was 400 ug/kg/d, and the positive drug group was given 0.1 mL sulfasalazine and intravesical injection of infliximab (dissolved in normal saline) at doses of 400 mg/kg/d and 5 mg/respectively. Each kg/d was administered continuously for 3 days.
The body weight changes, stool characteristics and blood in the stool were observed and recorded daily after enema.
On the 3rd day after enema, the mice were sacrificed by cervical dislocation. The colon and spleen were removed immediately. The length of the colon was measured.
Part of the diseased colon tissue was excised and weighed. MPO) activity in mouse colon tissue was detected using a myeloperoxidase (MPO) assay kit (Nanjing Institute of Bioengineering). MPO is a functional marker and activation marker for neutrophils and is involved in many processes that regulate inflammatory responses. Excessive MPO activity catalyzes the reaction to produce excess oxidants, causing local oxidative stress and oxidative tissue damage.
The colon of the mouse were washed with saline, fixed in 10% formalin. Tissue sections were prepared and stained with HE.

[4] = Plasma half-life in SD rats (ELISA); assay type: in vivo
Experimental: The assay was performed according to the manufacturer's instructions using an ELISA kit purchased from Genzyme. Serum samples were collected from the […] with heparinized 50 μL capillaries, and blood samples were collected at 1 min, 2 min, 3 min, 5 min, 10 min, 15 min, 20 min, 30 min, 45 min, 1 h, 2 h, 4 h, 6 h, 8 h after treatment. After standing for 2 h, the sample was centrifuged, and the obtained supernatant was stored at −20° C. for testing.

TNFR1-TNF-α binding = target: T4, TNFR1-TNF-α binding (Homo sapiens, UniProt P19438); assay: MST competitive inhibition of TNFR1-TNF-α binding
T4 sequence (P19438 30-211 limits assumed): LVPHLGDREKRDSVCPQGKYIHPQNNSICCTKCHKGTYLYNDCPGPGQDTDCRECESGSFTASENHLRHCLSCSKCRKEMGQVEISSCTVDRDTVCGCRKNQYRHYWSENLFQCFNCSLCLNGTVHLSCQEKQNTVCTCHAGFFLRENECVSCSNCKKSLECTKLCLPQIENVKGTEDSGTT
Excerpt: On-machine detection, software fitting to find the KD value. The changes of TNF-α saturation concentration, response amplitude and KD value before and after Hydrostatin-SN10 were compared.

TNF-α-TNFR1 binding = target: T5, TNF-α-TNFR1 binding (Homo sapiens, UniProt P19438); assay: BIAcore (SPR) competitive inhibition of TNF-α-TNFR1 binding
T5 sequence (P19438 30-211 limits assumed): T4 sequence (P19438 30-211 limits assumed)

TNF-α [5] = target: T2, TNF-α; assay: MST binding of Hydrostatin-SN10 to TNF-α; settings: fluorescently labeled TNF-α
[6] = Isoelectric point of Hydrostatin-SN10; assay type: physicochemical
TNFR1 [7] = target: T3, TNFR1; assay: biochemical; remark: listed apart in the source
[8] = test system: DSS-induced acute colitis mouse; assay: Dextran sulfate sodium-induced acute colitis mouse model; assay type: in vivo, Balb/c mice; settings: for body weight change: DSS 2.5% 7 days, 400 μg/kg/d intraperitoneal, FIG. 5; for myeloperoxidase (MPO) activity in colon tissue: FIG. 9; for serum IFN-γ content / serum IL-6 content / serum IL-10 (anti-inflammatory factor) / serum IL-β content / serum TNF-α content: FIG. 10; for colonic lesions, HE staining: FIG. 11; for TNF-α expressed in colon tissue sections: FIG. 12; for colon length: day 7, FIG. 7
Experimental: The specific implementation steps are as follows: Balb/c mice 6-8 weeks old were randomly divided into 8 groups, each group containing 10 mice.
According to Table 2, the disease activity index (DAI) score was obtained. […] Seven days after the model was established, the mouse were sacrificed by cervical dislocation, and the entire colon and spleen were removed. […] The spleen weight was measured and the spleen index was calculated.

Row | Substance | overall treatment effect in oxazolone-induced colitis ([3]; 400 ug/kg/d i.p.) | body weight change [3] | colon length ([3]; 400 ug/kg/d i.p.) | MPO activity in colon tissue ([3]; 400 ug/kg/d i.p.) | serum IFN-γ level ([3]; 400 ug/kg/d i.p.) | serum IL-1β level ([3]; 400 ug/kg/d i.p.) | serum IL-6 level ([3]; 400 ug/kg/d i.p.) | serum IL-10 (anti-inflammatory factor) ([3]; 400 ug/kg/d i.p.) | serum TNF-α level ([3]; 400 ug/kg/d i.p.) | pathological changes in colon tissue, HE staining ([3]; 400 ug/kg/d i.p.) | expression of TNF-α in colon tissue sections ([3]; 400 ug/kg/d i.p.) | body weight change [8] | overall treatment effect in DSS-induced colitis ([8]; DSS, 400 μg/kg/d i.p.) | myeloperoxidase (MPO) activity in colon tissue ([8]; DSS, 400 μg/kg/d i.p.) | serum IFN-γ content ([8]; DSS, 400 μg/kg/d i.p.) | serum IL-6 content ([8]; DSS, 400 μg/kg/d i.p.) | serum IL-10 (anti-inflammatory factor) ([8]; DSS, 400 μg/kg/d i.p.) | serum IL-β content ([8]; DSS, 400 μg/kg/d i.p.) | serum TNF-α content ([8]; DSS, 400 μg/kg/d i.p.) | colonic lesions, HE staining ([8]; DSS, 400 μg/kg/d i.p.) | further results
1 | H-DEQHLETELH [Hydrostatin-SN10] | effective in the treatment of oxazolone-induced mouse colitis animal model | significantly reduced the weight loss | significantly improved colon length | effective in inhibiting the increase in MPO activity | significantly reduced | significantly reduced | significantly reduced | significantly increased | significantly reduced | significantly attenuated pathological changes in mouse colon tissue | significantly reduced | effective in inhibiting the weight loss | effective in treating DSS-induced colitis animal models | significantly reduce MPO activity | significantly decreased | significantly decreased | significantly increased | significantly decreased | significantly decreased | effectively inhibit colonic lesions caused by DSS | binding to TNFR2 (TNFR2; fluorescently labeled TNFR2): not binding; binding to TNFR2 (TNFR2; fluorescently labeled TNFR2, listed as SN10): no binding; binding to TNF-α (TNF-α [1]): does not bind; binding to TNF-α (TNF-α [1]; listed as SN10): no binding; Kd (TNFR1 [2]): 2800 nM; disease activity index (DAI) score ([3]; 400 ug/kg/d i.p., FIG. 14): effectively alleviate the symptoms of diarrhea and blood in the stool; spleen index ([3]; 400 ug/kg/d i.p., FIG. 16): significantly down-regulate the mouse spleen index; half-life ([4]; rat, plasma, ELISA): 2.18 h; competitive inhibition of the interaction of TNFR1 and TNF-α (TNFR1-TNF-α binding): competitively inhibit; competitive inhibition of the interaction of TNFR1 with TNF-α (TNF-α-TNFR1 binding): competitively inhibits; binding to TNF-α (TNF-α [5]): not binding; binding to TNF-α (TNF-α [5]; listed as SN10): no binding; isoelectric point [6]: 4.39; Kd (TNFR1 [7]): ~2800 nM; disease activity index (DAI) score ([8]; DSS, 400 μg/kg/d i.p., FIG. 6): effectively alleviate the symptoms of diarrhea and blood in the stool; spleen index ([8]; DSS, 400 μg/kg/d i.p., FIG. 8): effectively inhibit spleen changes caused by colitis; TNF-α expressed in colon tissue sections ([8]; DSS, 400 μg/kg/d i.p.): alleviate the degree of inflammation in the colon tissue; colon length ([8]; DSS, 400 μg/kg/d i.p.): significantly improved the colon length
2 | PEG-SN10: Hydrostatin-SN10 modified with mPEG2000; carboxyl group of mPEG2000 covalently linked to free amino group of N-terminal aspartic acid (mPEG2000-DEQHLETELH) | effective in the treatment of oxazolone-induced mouse colitis animal model | significantly reduced the weight loss | significantly improved colon length | effective in inhibiting the increase in MPO activity | significantly reduced | significantly reduced | significantly reduced | significantly increased | significantly reduced | significantly attenuated pathological changes in mouse colon tissue | significantly reduced | effective in inhibiting the weight loss | effective in treating DSS-induced colitis animal models | significantly reduce MPO activity | significantly decreased | significantly decreased | significantly increased | significantly decreased | significantly decreased | effectively inhibit colonic lesions caused by DSS | plasma half-life compared with Hydrostatin-SN10 ([4]; after PEG modification): longer plasma half-life; TNF-α expressed in colon tissue sections ([8]; DSS, 400 μg/kg/d i.p.): alleviate the degree of inflammation in the colon tissue; colon length ([8]; DSS, 400 μg/kg/d i.p.): significantly improved the colon length
